Laboratory results taken from US9580390B2, “Indazole compounds as kinase inhibitors and method of treating cancer with same” (University Health Network, priority 2011, dated 2017).

Assays:
human TTK = molecular target: T1, human TTK (Homo sapiens, UniProt P33981); experiment: TTK inhibition assay (indirect ELISA); format: biochemical; conditions: read-out: TTK IC50 Range
T1 construct: amino terminal GST fusion of full length human TTK; purchased Invitrogen
T1 sequence (P33981 1-857): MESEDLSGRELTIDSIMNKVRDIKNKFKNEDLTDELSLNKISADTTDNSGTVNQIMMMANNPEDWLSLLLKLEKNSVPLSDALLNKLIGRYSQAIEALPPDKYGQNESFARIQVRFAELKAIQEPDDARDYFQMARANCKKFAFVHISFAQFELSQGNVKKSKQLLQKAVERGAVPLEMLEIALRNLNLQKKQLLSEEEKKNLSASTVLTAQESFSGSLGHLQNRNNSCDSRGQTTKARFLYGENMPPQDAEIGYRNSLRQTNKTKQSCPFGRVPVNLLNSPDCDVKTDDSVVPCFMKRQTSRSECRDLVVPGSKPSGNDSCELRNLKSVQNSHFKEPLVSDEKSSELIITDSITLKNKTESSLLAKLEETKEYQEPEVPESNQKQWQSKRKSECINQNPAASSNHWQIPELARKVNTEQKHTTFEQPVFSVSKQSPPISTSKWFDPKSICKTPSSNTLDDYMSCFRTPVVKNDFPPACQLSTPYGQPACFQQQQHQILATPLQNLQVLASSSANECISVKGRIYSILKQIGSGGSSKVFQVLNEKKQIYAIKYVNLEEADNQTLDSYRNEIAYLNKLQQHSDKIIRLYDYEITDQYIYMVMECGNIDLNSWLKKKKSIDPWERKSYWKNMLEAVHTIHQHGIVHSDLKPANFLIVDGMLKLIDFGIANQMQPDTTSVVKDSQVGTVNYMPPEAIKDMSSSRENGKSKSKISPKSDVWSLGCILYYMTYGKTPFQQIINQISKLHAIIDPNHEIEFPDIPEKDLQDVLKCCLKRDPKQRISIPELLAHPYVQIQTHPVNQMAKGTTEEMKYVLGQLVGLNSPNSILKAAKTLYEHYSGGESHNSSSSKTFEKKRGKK

Breast cancer cells = experiment: Cancer cell line growth inhibition (SRB assay); format: cell-based; conditions: Homo sapiens; MDA-MB-468; read-out: Cancer Cell Line GI50 Range MDA-MB-468
[1] = test system: colon cancer cells (HCT116); experiment: Cancer cell line growth inhibition (SRB assay); format: cell-based; conditions: Homo sapiens, HCT-116; read-out: Cancer Cell Line GI50 Range HCT116
[2] = test system: ovarian cancer cells (PA-1); experiment: Cancer cell line growth inhibition (SRB assay); format: cell-based; conditions: Homo sapiens, PA-1; read-out: Cancer Cell Line GI50 Range PA-1
TICs (Colon 12) = experiment: Colon tumor-initiating cell growth inhibition (Alamar Blue); format: cell-based; conditions: 216 h; Colon 12 TICs, 9 days; read-out: Tumor Initiating Cell GI50 Range Colon 12
TICs (Ovarian 2393A) = experiment: Ovarian tumor-initiating cell growth inhibition (Alamar Blue); format: cell-based; conditions: 144 h; Ovarian 2393A TICs, 6 days; read-out: Tumor Initiating Cell GI50 Range Ovarain 2393A

SMILES	IC50 (human TTK) [nM]	GI50 (Breast cancer cells) [nM]	GI50 [1] [nM]	GI50 [2] [nM]	GI50 (TICs (Colon 12)) [nM]	GI50 (TICs (Ovarian 2393A)) [nM]
O=C(NC(c1ccsc1)C1CCC1)c1ccc2[nH]nc(-c3ccc(O[C@H]4C[C@H]5CC[C@@H](C4)N5C4COC4)cc3)c2c1 (stereo partly drawn) [Example A326, N-(cyclobutyl(thiophen-3-yl)methyl)-3-(4-(((1R,3R,5S)-8-(oxetan-3-yl)-8-azabicyclo[3.2.1]octan-3-yl)oxy)phenyl)-1H-indazole-5-carboxamide]	< 100	100 to 500	100 to 500	100 to 500	< 100	< 100
CN1[C@@H]2CC[C@H]1C[C@@H](Oc1ccc(-c3n[nH]c4ccc(C(=O)NC(c5ccsc5)C5CCC5)cc34)cc1)C2 (stereo partly drawn) [Example A283, N-(cyclobutyl(thiophen-3-yl)methyl)-3-(4-(((1R,3R,5S)-8-methyl-8-azabicyclo[3.2.1]octan-3-yl)oxy)phenyl)-1H-indazole-5-carboxamide]	< 100	100 to 500	< 100	< 100	100 to 500	100 to 500
CC(C)C(NC(=O)c1ccc2[nH]nc(-c3ccc(O[C@H]4C[C@H]5CCC[C@@H](C4)N5C)cc3)c2c1)c1ccccc1Cl (stereo partly drawn) [Example A394, N-(1-(2-chlorophenyl)-2-methylpropyl)-3-(4-(((lR,3R,5S)-9-methyl-9-azabicyclo[3.3.1]nonan-3-yl)oxy)phenyl)-1H-indazole-5-carboxamide]	< 100	100 to 500	< 100	100 to 500	100 to 500	100 to 500
O=C(NCC1(c2ccccc2)CCOCC1)c1ccc2[nH]nc(-c3ccc(N4[C@@H]5CC[C@H]4COC5)cc3)c2c1 [Example A502, 3-(4-((1R,5S)-3-oxa-8-azabicyclo[3.2.1]octan-8-yl)phenyl)-N-((4-phenyltetrahydro-2H-pyran-4-yl)methyl)-1H-indazole-5-carboxamide]	< 100	< 100	< 100	< 100	< 100	< 100
CC(C)[C@H](NC(=O)c1ccc2[nH]nc(-c3ccc(N4C5COCC4CC(O)C5)cc3)c2c1)c1ccccc1Cl (stereo partly drawn) [Example A421, N((S)-1-(2-chlorophenyl)-2-methylpropyl)-3-(4-((1R,5S,7R)-7-hydroxy-3-oxa-9-azabicyclo [3.3.1]nonan-9-yl)phenyl)-1H-indazole-5-carboxamide]	< 100	< 100	< 100	< 100	< 100	< 100
CN1C2CCC1CC(Oc1ccc(-c3n[nH]c4ccc(C(=O)N[C@@H](c5ccccc5)C5CC5)cc34)cc1)C2 (stereo partly drawn) [Example A378, N-((R)-cyclopropyl(phenyl)methyl)-3-(4-(((1R,3R,5S)-8-methyl-8-azabicyclo[3.2.1]octan-3-yl)oxy)phenyl)-1H-indazole-5-carboxamide]	< 100	100 to 500	< 100	< 100	100 to 500	100 to 500
CN1[C@@H]2CC[C@H]1C[C@@H](Oc1ccc(-c3n[nH]c4ccc(C(=O)NC(c5ccccn5)C5CCCC5)cc34)cc1)C2 (stereo partly drawn) [Example A244, N-(cyclopentyl(pyridin-2-yl)methyl)-3-(4-(((1R,3R,5S)-8-methyl-8-azabicyclo[3.2.1]octan-3-yl)oxy)phenyl)-1H-indazole-5-carboxamide]	< 100	100 to 500	< 100	< 100	100 to 500	100 to 500
O=C(N[C@H](c1ccccc1F)C1CC1)c1ccc2[nH]nc(-c3ccc(N4C5CCC4CC(O)C5)cc3)c2c1 (stereo partly drawn) [Example A265, N-((S)-cyclopropyl(2-fluorophenyl)methyl)-3-(4-((1R,3R,5S)-3-hydroxy-8-azabicyclo[3.2.1]octan-8-yl)phenyl)-1H-indazole-5-carboxamide]	< 100	< 100	< 100	< 100	< 100	< 100

More lines, now with the values ahead:

IC50 (human TTK) [nM]	GI50 (Breast cancer cells) [nM]	GI50 [1] [nM]	GI50 [2] [nM]	GI50 (TICs (Colon 12)) [nM]	GI50 (TICs (Ovarian 2393A)) [nM]	SMILES
< 100	> 500	100 to 500	100 to 500	> 500	> 500	CN1CCC(Oc2ccc(-c3n[nH]c4ccc(C(=O)NC(c5ccccn5)C5CC5)cc34)cc2S(C)(=O)=O)CC1 (stereo not drawn) [Example A245, N-(cyclopropyl(pyridin-2-yl)methyl)-3-(4-((1-methylpiperidin-4-yl)oxy)-3-(methylsulfonyl)phenyl)-1H-indazole-5-carboxamide]
< 100	> 500	100 to 500	100 to 500	100 to 500	> 500	CN1CCC(Oc2ccc(-c3n[nH]c4ccc(C(=O)N[C@@H](c5ccccn5)C5CC5)cc34)cc2Cl)CC1 [Example A386, (R)-3-(3-chloro-4-((1-methylpiperidin-4-yl)oxy)phenyl)-N-(cyclopropyl(pyridin-2-yl)methyl)-1H-indazole-5-carboxamide]
< 100	100 to 500	< 100	< 100	100 to 500	100 to 500	O=C(NCC1(N2CCOCC2)CCCCC1)c1ccc2[nH]nc(-c3ccc(N4CCN(CCO)CC4)cc3)c2c1 [Example A459, 3-(4-(4-(2-hydroxyethyl)piperazin-1-yl)phenyl)-N-((1-morpholinocyclohexyl)methyl)-1H-indazole-5-carboxamide]
< 100	< 100	< 100	< 100	< 100	< 100	CC(C)[C@H](NC(=O)c1ccc2[nH]nc(-c3ccc(OC4CCN(C)CC4)cc3)c2c1)c1ccccc1Cl [Example A273, (S)-N-(1-(2-chlorophenyl)-2-methylpropyl)-3-(4-((1-methylpiperidin-4-yl)oxy)phenyl)-1H-indazole-5-carboxamide]
< 100	< 100	< 100	< 100	100 to 500	< 100	CC1=CC2(CCN(C)CC2)Oc2ccc(-c3n[nH]c4ccc(C(=O)N[C@H](c5ccccn5)C5CC5)cc34)cc21 [Example A260, (S)-N-(cyclopropyl(pyridin-2-yl)methyl)-3-(1′,4-dimethylspiro[chromene-2,4′-piperidin]-6-yl)-1H-indazole-5-carboxamide]
< 100	100 to 500	< 100	< 100	> 500	100 to 500	O=C(NCC1(N2CCOCC2)CCCCC1)c1ccc2[nH]nc(-c3ccc(N4CCNCC4)cc3)c2c1 [Example A505, N-((1-morpholinocyclohexyl)methyl)-3-(4-(piperazin-1-yl)phenyl)-1H-indazole-5-carboxamide]
< 100	< 100	< 100	< 100	< 100	< 100	CC1=CC2(CCN(C)CC2)Oc2ccc(-c3n[nH]c4ccc(C(=O)NCC5(N6CCOCC6)CCCCC5)cc34)cc21 [Example A489, 3-(1′,4-dimethylspiro[chromene-2,4′-piperidin]-6-yl)-N-((1-morpholinocyclohexyl)methyl)-1H-indazole-5-carboxamide]
< 100	< 100	< 100	< 100	100 to 500	< 100	CC(C)[C@H](NC(=O)c1ccc2[nH]nc(-c3ccc(OC4CCN(C)CC4)c(S(C)(=O)=O)c3)c2c1)c1ccccc1Cl [Example A259, (S)-N-(1-(2-chlorophenyl)-2-methylpropyl)-3-(4-((1-methylpiperidin-4-yl)oxy)-3-(methylsulfonyl)phenyl)-1H-indazole-5-carboxamide]
< 100	100 to 500	< 100	< 100	100 to 500	100 to 500	CN1CCC2(CC1)CC(=O)c1cc(-c3n[nH]c4ccc(C(=O)N[C@H](c5ccccn5)C5CC5)cc34)ccc1O2 [Example A257, (S)-N-(cyclopropyl(pyridin-2-yl)methyl)-3-(1′-methyl-4-oxospiro[chroman-2,4′-piperidin]-6-yl)-1H-indazole-5-carboxamide]
